# Test results: US20210309657A1, “TRICYCLIC COMPOUNDS FOR THE TREATMENT AND PROPHYLAXIS OF BACTERIAL INFECTION” (Hoffmann-La Roche Inc., priority 2018, published 2021)
# Read-outs that look alike come from different tables or passages of the source.
# Tests used:
# [1] = test system: K. pneumoniae (ATCC10031); test: 50% growth inhibitory concentration (IC50) determination assay, K. pneumoniae; assay type: cell-based; conditions: Klebsiella pneumoniae, growth inhibition, Iso-Sensitest broth, OD 600 nm over 16h, <0.098 = the detection limit
# Protocol: (§1) The in vitro antimicrobial activity of the compounds against S. aureus (ATCC29213), K. pneumoniae (ATCC10031), and A. baumannii (ATCC17978), was determined according to the following procedure: The assay used a 10-points Iso-Sensitest broth medium to measure quantitatively the in vitro activity of the compounds against S. aureus ATCC29213, K. pneumoniae ATCC 10031, and A. baumannii ATCC17978. Stock compounds in DMSO were serially two-fold diluted (range from 50 to 0.097 μM final concentration) in 384 wells microtiter plates and inoculated with 49 μL the bacterial suspension in Iso-Sensitest broth medium to have a final cell concentration of ˜5×10^5 CFU/mL in a final volume/well of 50 μL/well. Microtiter plates were incubated at 35±2° C. Bacterial cell growth was determined with the measurement of optical density at λ=600 nm each 20 minutes over a time course of 16h. Growth inhibition was calculated during the logarithmic growth of the bacterial cells with determination of the concentration inhibiting 50% (IC50) of the growth. Compounds of the present invention were tested for their concentration inhibiting 50% (IC50). The data of IC50 over S. aureus (ATCC29213), K. pneumoniae (ATCC10031), and A. baumannii (ATCC17978) are illustrated in Table 4.
# A. baumannii (ATCC17978) = test: 50% growth inhibitory concentration (IC50) determination assay, A. baumannii; assay type: cell-based; conditions: Acinetobacter baumannii, growth inhibition, Iso-Sensitest broth, OD 600 nm over 16h, <0.098 = the detection limit
# Protocol: as §1
# [2] = Lyophilisation solubility assay (LYSA); assay type: physicochemical; conditions: thermodynamic from solid
# Protocol: The solubility of compounds of present invention was assessed by LYSA assay. Samples were prepared in duplicate from 10 mM DMSO stock solutions ([…]) diluted in 30 μL pure DMSO. After evaporation of DMSO with a centrifugal vacuum evaporator, the residue was dissolved in 0.05 M phosphate buffer (150 μL, pH 6.5), which was stirred for one hour and shook for two hours. After one night, the solution was filtered using a microtiter filter plate. Then the filtrate and its 1/10 dilution were analyzed by HPLC-UV. In addition, a four-point calibration curve was prepared from the 10 mM stock solutions and used for the solubility determination of the compounds.
# S. aureus (ATCC29213) = test: 50% growth inhibitory concentration (IC50) determination assay, S. aureus; assay type: cell-based; conditions: Staphylococcus aureus, growth inhibition, Iso-Sensitest broth, OD 600 nm over 16h, <0.098 = the detection limit
# Protocol: as §1
# [3] = aqueous buffer, 0.05 M phosphate buffer, pH 6.5, HPLC-UV, <1.0 = the detection limit, read-out: Lysa
Structure (SMILES),IC50 [1],IC50 (A. baumannii (ATCC17978)),"solubility thermodynamic [2, 3]",IC50 (S. aureus (ATCC29213)),"solubility thermodynamic ([2]; pH 6.5, aqueous buffer)"
"CCNc1cc(F)c(F)c2c1[nH]c1ncc(-c3cnc(OC)nc3)c(N3CCC(CN)C3)c12 (stereo not drawn) [Example 1.08, 4-[3-(Aminomethyl)pyrrolidin-1-yl]-N-ethyl-5,6-difluoro-3-(2-methoxypyrimidin-5-yl)-9H-pyrido[2,3-b]indol-8-amine]",< 98 nM,243 nM,83 µg/mL,789 nM,
"CCNc1cc(F)c(F)c2c1[nH]c1ncc(-c3cncc(C#N)c3)c(N3CC[C@@H](N)C3)c12 [Example 1.04, 5-[4-[(3R)-3-Aminopyrrolidin-1-yl]-8-(ethylamino)-5,6-difluoro-9H-pyrido[2,3-b]indol-3-yl]pyridine-3-carbonitrile]",< 98 nM,212 nM,145 µg/mL,380 nM,
"CNc1cc(F)c(F)c2c1[nH]c1ncc(-c3cnc(OC)nc3)c(N3CC(CN)C(F)(F)C3)c12 (stereo not drawn) [Example 3.03, 4-[4-(aminomethyl)-3,3-difluoro-pyrrolidin-1-yl]-5,6-difluoro-3-(2-methoxypyrimidin-5-yl)-N-methyl-9H-pyrido[2,3-b]indol-8-amine]",< 98 nM,411 nM,125 µg/mL,559 nM,
"CCNc1cc(C(F)(F)F)cc2c1[nH]c1ncc(-c3cncc(C#N)c3)c(N3CCC(N)C3)c12 (stereo not drawn) [Example 1.20, 5-[4-(3-Aminopyrrolidin-1-yl)-8-(ethylamino)-6-(trifluoromethyl)-9H-pyrido[2,3-b]indol-3-yl]pyridine-3-carbonitrile]",< 98 nM,< 98 nM,124 µg/mL,1270 nM,
"CCNc1cc(F)cc2c1[nH]c1ncc(-c3cncc(C#N)c3)c(N3CCCC(CN)C3)c12 (stereo not drawn) [Example 1.14, 5-[4-[3-(Aminomethyl)-1-piperidyl]-8-(ethylamino)-6-fluoro-9H-pyrido[2,3-b]indol-3-yl]pyridine-3-carbonitrile]",< 98 nM,< 98 nM,10 µg/mL,1210 nM,
"CNc1cc(F)c(F)c2c1[nH]c1ncc(-c3cnc(C)nc3)c(N3C[C@H]4C[C@@H]3C[C@H]4N)c12 [GP-6, reference compound]",< 98 nM,< 98 nM,< 1 µg/mL,< 98 nM,
"CNc1cc(F)c(F)c2c1[nH]c1ncc(-c3cncc(C#N)c3)c(N3CCC(F)(CN)C3)c12 (stereo not drawn) [Example 1.22, 5-[4-[3-(Aminomethyl)-3-fluoro-pyrrolidin-1-yl]-5,6-difluoro-8-(methylamino)-9H-pyrido[2,3-b]indol-3-yl]pyridine-3-carbonitrile]",< 98 nM,112 nM,11 µg/mL,224 nM,
"CCOc1ncc(-c2cnc3[nH]c4c(NC)cc(F)cc4c3c2N2C3CNCC2C3)cn1 [Example 1.59, 4-(3,6-Diazabicyclo[3.1.1]heptan-6-yl)-3-(2-ethoxypyrimidin-5-yl)-6-fluoro-N-methyl-9H-pyrido[2,3-b]indol-8-amine]",< 98 nM,499 nM,,631 nM,395 µg/mL
"CNc1cc(F)c(F)c2c1[nH]c1ncc(-c3cncc(C#N)c3)c(N3CCC(CN)C3)c12 (stereo not drawn) [Example 1.13, 5-[4-[3-(Aminomethyl)pyrrolidin-1-yl]-5,6-difluoro-8-(methylamino)-9H-pyrido[2,3-b]indol-3-yl]pyridine-3-carbonitrile]",< 98 nM,764 nM,46 µg/mL,1500 nM,
"CNc1cc(F)c(F)c2c1[nH]c1ncc(-c3cnc(OC)nc3)c(N3CCC4(C[C@@H]4N)C3)c12 (stereo in doubt) [Example 1.35, 4-[Trans-2-amino-5-azaspiro[2.4]heptan-5-yl]-5,6-difluoro-3-(2-methoxypyrimidin-5-yl)-N-methyl-9H-pyrido[2,3-b]indol-8-amine]",< 98 nM,< 98 nM,90 µg/mL,184 nM,
"CNc1cc(F)cc2c1[nH]c1ncc(-c3cnc(OC)nc3)c(C3(CN)CC3)c12 [Example 4.01, 4-(1-(Aminomethyl)cyclopropyl)-6-fluoro-3-(2-methoxypyrimidin-5-yl)-N-methyl-9H-pyrido[2,3-b]indol-8-amine]",< 98 nM,847 nM,> 575 µg/mL,631 nM,
"CNc1cc(F)cc2c1[nH]c1ncc(-c3cncc(C#N)c3)c(N3CCC4(C[C@H]4N)C3)c12 (stereo in doubt) [Example 1.16, 5-[6-Fluoro-8-(methylamino)-4-[cis-2-amino-5-azaspiro[2.4]heptan-5-yl]-9H-pyrido[2,3-b]indol-3-yl]pyridine-3-carbonitrile]",< 98 nM,104 nM,32 µg/mL,867 nM,
